From patent US20040053234A1, “Polynucletides that control delta-6 desaturase genes and methods for identifying compounds for modulating delta-6 desaturase” (priority 2000, published 2004)

Legend:
[1] = target: T1, hD6D-1 (with V5/6xHis tags) (Homo sapiens, UniProt O95864)
T1 sequence (O95864 1-444): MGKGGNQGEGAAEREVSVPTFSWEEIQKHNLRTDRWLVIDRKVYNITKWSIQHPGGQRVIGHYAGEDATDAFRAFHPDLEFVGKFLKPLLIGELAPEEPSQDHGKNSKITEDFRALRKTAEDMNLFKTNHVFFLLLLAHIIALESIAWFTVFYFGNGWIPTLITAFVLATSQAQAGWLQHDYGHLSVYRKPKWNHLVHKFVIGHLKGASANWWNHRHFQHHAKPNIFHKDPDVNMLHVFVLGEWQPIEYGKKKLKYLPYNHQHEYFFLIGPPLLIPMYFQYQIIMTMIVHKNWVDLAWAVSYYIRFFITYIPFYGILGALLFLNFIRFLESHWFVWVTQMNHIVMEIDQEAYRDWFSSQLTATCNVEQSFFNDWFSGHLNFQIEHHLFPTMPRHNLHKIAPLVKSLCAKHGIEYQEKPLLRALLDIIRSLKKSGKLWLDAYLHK
Method: (§1) Saccharomyces cerevisiae transformed with pYr5003.1 without V5/6×His tags or pTh5002.1 with V5/6×His tags were grown in modified SC-U medium with 2% galactose to induce the expression of the gene that encodes the fatty acid delta-6-desaturase. After 16 h incubation, cells were centrifuged at 2060×g for 5 min at 4° C., washed once with distilled water and centrifuged again. The volume and weight of the cell pellet were measured Cells were suspended (1:2 w/v) in 0.1 M Tris.SO4 (pH 9.4), 10 mM DTT and incubated at 30° C. After 10 min incubation, the cell pellet was obtained by centrifugation, washed once (1:20 w/v) with 1.2 M sorbitol and suspended (1:1 w/v) in 1.2 M sorbitol, 20 mM phosphate buffer (pH 7.4) as described elsewhere (Daum et al., 1982, J. Biol. Chem., 257: 13028-13033). The 15,800× g (1 min) supernatant of Lyticase was added to the cell suspension at a concentration of 2000 U/ml and the suspension incubated at 30° C. with 50 rpm shaking. Conversion to spheroplasts was checked after 40 min incubation by diluting the suspension with distilled water followed by observation under the microscope (Schatz G. and Kovac L., 1974, Methods in Enzymology, 31A: 627-632).
(§2) Spheroplasts were harvested by centrifugation at 2060×g for 5 min at 4° C. and washed once with 1.2 M sorbitol. Spheroplasts were suspended in modified SC-U medium with 1% tergitol, 1.2 M sorbitol and 2% galactose to maintain the induction conditions and to give an OD600 reading of approximately 2.5-3.0. A 10 ml aliquot of the spheroplast suspension was transferred to a 125 ml Erlenmeyer flask and incubated with 200 μL of n-propyl gallate in ethanol (final concentration in the culture ranged between 0.7 and 14.1 mM) at 30° C. in an orbital incubator set at 270 rpm After 30 min incubation 1 μCi of [1-^14C]-alpha-linolenic or [1-^14C]-linoleic acids were added to the cultures to a final concentration of 2 μM and further incubated for 120 min. At this time point, turbidity readings at OD600 were taken, spheroplasts were harvested by centrifugation and washed with Tris buffer (100 mM, pH 8.0) containing 0.1%/o BSA. Total lipids were extracted as described below.
(§3) The radioactivity from aliquots of the supernatant, spheroplasts and whole cells was determined by liquid scintillation counting using a LS6500-Scintillation System (Beckman) prior to the lipid extraction. Total lipids were extracted from cells or spheroplasts with chloroform/methanol (2:1 v/v) according to the method of Folch et al., 1957, J. Biol. Chem., 226: 497-509. The total lipid extracts were methylated using boron trifluoride in methanol at 90° C. for 30 min.
(§4) The desaturase activity was determined by measuring the conversion of radiolabelled linoleic acid to gammna-linolenic acid (18:2n-6 to 18:3n-6) and alpha-linolenic acid to stearidonic acid (18:3n-3 to 18:4n-3). The percent inhibition was calculated as described elsewhere (Kawashima et al., 1996, Biosci. Biotech. Biochem., 60:1672-1676):
(§5) Inhibition % =(activity without the inhibitor−activity with the inhibitor)/activity without the inhibitor

fatty acid desaturases = details: Kawashima et al., 1996; cited from earlier work
[2] = test system: spheroplasts of transformed Saccharomyces cerevisiae; assay: O.D.600 and substrate radioactivity recovered in spheroplasts (cytotoxicity, uptake); format: cell-based
Text: Total lipids were extracted as described below.

[3] = target: T2, rD6D-1 (without V5/6xHis tags) (Rattus norvegicus, UniProt Q9Z122)
T2 sequence (Q9Z122 whole entry): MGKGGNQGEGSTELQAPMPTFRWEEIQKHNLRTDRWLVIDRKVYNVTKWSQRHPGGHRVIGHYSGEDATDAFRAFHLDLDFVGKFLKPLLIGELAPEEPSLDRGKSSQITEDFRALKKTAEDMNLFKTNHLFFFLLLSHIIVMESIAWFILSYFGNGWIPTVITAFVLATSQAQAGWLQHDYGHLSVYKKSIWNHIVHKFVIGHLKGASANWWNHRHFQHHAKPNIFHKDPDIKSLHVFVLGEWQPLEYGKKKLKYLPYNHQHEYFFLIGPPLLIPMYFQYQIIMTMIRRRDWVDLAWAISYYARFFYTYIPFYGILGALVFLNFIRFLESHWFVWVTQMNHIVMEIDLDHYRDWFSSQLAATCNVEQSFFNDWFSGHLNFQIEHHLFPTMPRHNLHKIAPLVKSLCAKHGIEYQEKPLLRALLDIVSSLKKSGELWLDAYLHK
Method: as §1, §2, §3, §4, §5

delta 6 desaturase = target: T3, delta 6 desaturase (Rattus norvegicus, UniProt Q9Z122); assay: Inhibition of delta 6 desaturase in rat liver microsomes incubated with alpha-linolenic or linoleic acid; format: biochemical
T3 construct: from tissue; host or cells: rat liver microsomes (female Wistar rats)
T3 sequence (Q9Z122 whole entry): as above
Method: As proposed by Leikin and Brenner (Leikin A. I. and Brenner R. R., 1989, Biochim. Biophys. Acta. September 25, 1005: 187-191), the following are best conditions for the desaturation assays since the enzymes are saturated with the substrates and the reactions are linear within the incubation time. Reactions were started by adding 2 or 3 mg of microsomal protein to pre-incubated tubes containing 0.20 μCi of the substrate fatty acid at a final concentration of 33.3 μM in 1.5 ml of the homogenization solution, containing NaF (42 mM), niacinamide (0.33 mM), ATP (1.57 mM), NADH (1.01 mM) and coenzyme A (0.09 mM) as described elsewhere (Leikin A. I. and Brenner R. R., 1989, Biochim. Biophys. Acta. September 25,1005: 187-191).The tubes were vortexed vigorously and after 15 min incubation in a shaling water bath (37° C.), the reactions were stopped by the addition of 2 ml of 10% (w/v) KOH in ethanol. Lipids in the incubation mixture were saponified at 80° C. for 45 min under N2. The samples were then left in ice for 5 min before acidification. The fatty acids were extracted with hexane and esterified with BF3/methanol at 90° C. for 30 min (Morrison W. R. and Smith L. M., 1964, J. Lipid Res., 5: 600-608).
Hepatic microsomes were obtained from female Wistar rats by differential centrifigation as described in Example 3.
Incubations were performed as described in Example 3. N-propyl gallate was added to the incubation medium to a final concentration that ranged from 0.02 to 0.32 mM.

[4] = target: T1, hD6D-1 (with V5/6xHis tags); assay: Inhibition of hD6D-1 in whole cells of transformed Saccharomyces cerevisiae; format: cell-based; design: expressed in transfected cells; host or cells: Saccharomyces cerevisiae INVSc1 transformed with pTh5002.1 (pYES2/CT); details: [1-14C]-alpha-linolenic acid
Method: Transformed Saccharomyces cerevisiae pTh5002.1 with V5/6xHis tags were incubated in a 125 ml Erlenmeyer flask containing 9 ml of modified SC-U medium with 1% tergitol (O.D.6000.4, approximately 3.2×10^6 cells) and 200 μl of 7, 14 or 28 mM n-propyl gallate in ethanol. After 1 h incubation in an orbital incubator at 270 rpm and 30° C., 1 μCi of potassium salts of [1-^14C]-linoleic or [1-^14C]-alpha-linolenic acids (dissolved in modified SC-U medium and 1% tergitol) were added to the cell suspension to a final concentration of 2 μM. After 5 h incubation with the inhibitor, cells reached the log phase and the transgene expression was induced with the addition of 1 ml of galactose to a final concentration of 2%. Yeast were further incubated for 19 h (OD600 range 7.2-9.3) until they were harvested by centrifugation at 5000×g for 10 minutes at 4° C. Cell were washed with Tris buffer (100 mM, pH 8.0) containing 0.1% BSA and total lipids were extracted as described below.
The radioactivity from aliquots of the supernatant, spheroplasts and whole cells was determined by liquid scintillation counting using a LS6500-Scintillation System (Beckman) prior to the lipid extraction. […]
The desaturase activity was determined by measuring the conversion of radiolabelled linoleic acid to gammna-linolenic acid (18:2n-6 to 18:3n-6) and alpha-linolenic acid to stearidonic acid (18:3n-3 to 18:4n-3). […]

delta-6-desaturase = assay: Inhibition of delta-6-desaturase in rat liver microsomes incubated with [1-14C]-dihomogammalinolenic acid; format: biochemical; details: for % of inhibition: substrate [1-14C]-dihomogammalinolenic acid
Method: Wistar rats under light halothane (15% in mineral oil) anesthesia were sacrificed by exsanguination during periods of high enzyme activity. Livers are immediately rinsed with cold 0.9% NaCl solution, weighed and minced with scissors. All procedures are performed at 4° C. unless specified otherwise. Livers are homogenized in a solution (1:3 w/v) containing 0.25 M sucrose, 62 mM potassium phosphate buffer (pH 7.0), 0.15 M KCl, 1.5 mM N-acetylcysteine, 5 mM MgCl2, and 0.1 mM EDTA using 4 strokes of a Potter-Elvehjem tissue homogenizer. The homogenate is centrifuged at 10,400×g for 20 min to eliminate mitochondria and cellular debris. The supernatant is filtered through a 3-layer cheesecloth and centrifuged at 105,000×g for 60 min. The microsomal pellet is gently resuspended in the same homogenization solution with a small glass/teflon homogenizer and stored at −70° C. The absence of mitochondrial contamination is enzymatically assessed. The protein concentration is measured using bovine serum albumin as the standard.
Reactions are started by adding 2 mg of microsomal protein to pre-incubated tubes containing 0.20 μCi of the substrate fatty acid (DGLA) at a final concentration of 33.3 μM in 1.5 ml of homogenization solution, containing NaF (42 mM), niacinamide (0.33 mM), ATP (1.57 mM), NADH (1.0 mM), coenzyme A (0.09 mM) and a range of concentrations of the enzyme modulators. N-propyl gallate was added to the incubation medium to a final concentration of 0.02-0.32 mM. The tubes are vortexed vigorously and after 15 min incubation in a shaking water bath (37° C.), the reactions are stopped and fatty acids are analyzed as described in herein. Alternatively, fatty acid methyl esters are analyzed by capillary column gas chromatography (GC).

[5] = target: T2, rD6D-1 (without V5/6xHis tags); assay: Inhibition of rD6D-1 in spheroplasts of transformed Saccharomyces cerevisiae; details: [1-14C]-linoleic acid
Method: as §1, §2, §3, §4, §5

CCCOC(=O)c1cc(O)c(O)c(O)c1 [n-propyl gallate, Propyl ester of 3,4,5-trihydroxybenzoic acid]
inhibition [1]: 82.3%
Mode of inhibition (fatty acid desaturases): noncompetitive inhibitor
Concentrations that may be toxic for the spheroplasts ([2]; cell number slightly decreased, radioactivity recovered substantially reduced): > 5600 µM
O.D.600 ([2]; hD6D-1 spheroplasts, inhibitor 0.7 mM): 2.2
O.D.600 ([2]; hD6D-1 spheroplasts, inhibitor 1.4 mM): 3.4
O.D.600 ([2]; hD6D-1 spheroplasts, inhibitor 2.8 mM): 3.1
O.D.600 ([2]; hD6D-1 spheroplasts, inhibitor 5.6 mM): 3.5
O.D.600 ([2]; hD6D-1 spheroplasts, inhibitor 14.1 mM): 2.5
Cytotoxicity to spheroplasts ([2]; n-propyl gallate 0.7-5.6 mM, constant O.D.600, similar radioactivity recovered): not cytotoxic
O.D.600 ([2]; rD6D-1 spheroplasts, inhibitor 0.7 mM): 2.5
O.D.600 ([2]; rD6D-1 spheroplasts, inhibitor 1.4 mM): 2.6
O.D.600 ([2]; rD6D-1 spheroplasts, inhibitor 2.8 mM): 2.5
O.D.600 ([2]; rD6D-1 spheroplasts, inhibitor 5.6 mM): 2.6
O.D.600 ([2]; rD6D-1 spheroplasts, inhibitor 14.1 mM): 2.3
inhibition [3]: 100%
% of inhibition 18:2n-6 → 18:3n-6 (delta 6 desaturase; inhibitor 0.02 mM): 18.0%
% of inhibition 18:3n-3 → 18:4n-3 (delta 6 desaturase; inhibitor 0.02 mM): 28.7%
% of inhibition 18:2n-6 → 18:3n-6 (delta 6 desaturase; inhibitor 0.04 mM): 32.0%
% of inhibition 18:3n-3 → 18:4n-3 (delta 6 desaturase; inhibitor 0.04 mM): 42.5%
% of inhibition 18:2n-6 → 18:3n-6 (delta 6 desaturase; inhibitor 0.08 mM): 64.5%
% of inhibition 18:3n-3 → 18:4n-3 (delta 6 desaturase; inhibitor 0.08 mM): 54.2%
% of inhibition 18:2n-6 → 18:3n-6 (delta 6 desaturase; inhibitor 0.16 mM): 82.6%
% of inhibition 18:3n-3 → 18:4n-3 (delta 6 desaturase; inhibitor 0.16 mM): 71.3%
% of inhibition 18:2n-6 → 18:3n-6 (delta 6 desaturase; inhibitor 0.32 mM): 98.7%
% of inhibition 18:3n-3 → 18:4n-3 (delta 6 desaturase; inhibitor 0.32 mM): 79.5%
% of inhibition ([4]; inhibitor 7 mM): 36.7%
% of inhibition ([4]; inhibitor 14 mM): 73.6%
% of inhibition (delta-6-desaturase; inhibitor 0.02 mM): 62.9%
% of inhibition (delta-6-desaturase; inhibitor 0.04 mM): 74.9%
% of inhibition (delta-6-desaturase; inhibitor 0.08 mM): 86.4%
% of inhibition (delta-6-desaturase; inhibitor 0.16 mM): 88.7%
% of inhibition (delta-6-desaturase; inhibitor 0.32 mM): 100.0%
Inhibitor concentration at which a plateau of inhibition was reached (delta-6-desaturase; rat liver microsomes, Table 20): 0.08 to 0.32 mM
% of inhibition ([5]; inhibitor 0.7 mM): 8.9%
% of inhibition ([5]; inhibitor 1.4 mM): 39.2%
% of inhibition ([5]; inhibitor 2.8 mM): 77.4%
% of inhibition ([5]; inhibitor 14.1 mM): 100%
